Experiment [1] relates to spontaneously hypertensive rats (SHR). Put plainly: Antihypertensive activity in conscious spontaneously hypertensive rats (SHR), oral. Type of experiment: in vivo, rat. The text has this:
The present compounds are useful in inhibiting the phosphodiesterase enzymes. These phosphodiesterase enzymes are known to hydrolyze cGMP in smooth muscle. High levels of cGMP are associated with the relaxation of vascular smooth muscle, with a consequent subsequent reduction in blood pressure. Thus, it is believed that by inhibiting these phosphodiesterase enzymes, cGMP levels in muscle will be either maintained or increased, with a subsequent reduction in blood pressure. In vivo antihypertensive activity is determined orally in spontaneously hypertensive rats (SHR).
Antihypertensive activity in rats
The ability of the compounds of the present invention to lower blood pressure can be assessed in vivo in conscious spontaneously hypertensive rats (SHR). SHR males are purchased from Taconic Farms, Germantown, N.Y. and are approximately 16-18 weeks old when anesthetized with ether. The caudal (ventral tail) artery is cannulated with polyethylene tubing (PE50) and blood pressure and heart rate are recorded as described by Baum, T. et. al, J. Cardiovasc. Pharmacol. Vol 5, pp. 655-667, (1983). Rats are placed into plastic cylindrical cages where they rapidly recover consciousness. Blood pressure and heart rate are allowed to stabilize for approximately 90 minutes prior to compound administration. […] Activity is expressed as the fall in mean blood pressure (MBP) in millimeters of mercury (mm Hg). […]

For experiment [2], the target named is T1, calcium-calmodulin dependent phosphodiesterase (CaM-PDE) (Bos taurus, UniProt P14100).
T1 construct: from tissue; host or cells: bovine aorta
Description: Phosphodiesterase inhibition in vitro, calcium-calmodulin dependent phosphodiesterase (CaM-PDE), 3H-cGMP substrate. To be noted: CaM-PDE from bovine aorta; 1 μM 3H-cGMP; pH 7.5; 25 minutes at room temperature. Type of experiment: biochemical.

Each structure is given as a SMILES string.

As a reminder, the IC50 is the point on the concentration scale where inhibition reaches its midpoint. Take `CN1C(=O)c2[nH]c(Cc3ccccc3)nc2N2C1=N[C@@H]1CCC[C@@H]12` (relative stereo) [Compound A, reference compound]: the “SHR: fall in MBP at 25 mpk” value in experiment [1] is 6 mmHg. Further, in experiment [2], the IC50 came to 200 nM.

With `CN1C(=O)c2[nH]cnc2N2C1=N[C@@H]1CCC[C@@H]12` (relative stereo) [Compound B, cis-5,6a,7,8,9,9a-hexahydro-5-methylcyclopenta-[4,5]imidazo[2,1-b]-purin-4(3H)-one, reference compound], the “SHR: fall in MBP at 25 mpk” value in experiment [1] is reported as 32 mmHg. Further, the half-maximal inhibitory concentration (IC50) in experiment [2] was 33000 nM.

For the compound `CN1C(=O)c2[nH]c(Cc3ccc(F)cc3)nc2N2C1=N[C@@H]1CCC[C@@H]12` [Example 1A], in experiment [2], the IC50 was less than 100 nM.

Regarding `COc1ccc(Cc2nc3c([nH]2)C(=O)N(C)C2=N[C@@H]4CCC[C@@H]4N23)cc1` [Example 1B], in experiment [2], the IC50 came out at 200 nM.

As for `CN1C(=O)c2[nH]c(Cc3ccc(C(F)(F)F)cc3)nc2N2C1=N[C@@H]1CCC[C@@H]12` [Example 1C], the IC50 in experiment [2] is 600 nM.

In the case of `CN1C(=O)c2[nH]c(Cc3ccccc3)nc2N2C1=N[C@@H]1CCC[C@@H]12` [Example 1], the IC50 in experiment [2] was 100 nM.

As for `COc1cc(Cc2nc3c([nH]2)C(=O)N(C)C2=N[C@@H]4CCC[C@@H]4N23)cc(OC)c1OC` [Example 2A], the IC50 in experiment [2] was 700 nM.

On to `COc1ccc(Cc2nc3c([nH]2)C(=O)N(C)C2=N[C@@H]4CCC[C@@H]4N23)cc1OC` [Example 2B], for which, in experiment [2], the concentration for half-maximal inhibition (IC50) was 400 nM.

As to `CN1C(=O)c2[nH]c(Cc3ccc(N(C)C)cc3)nc2N2C1=N[C@@H]1CCC[C@@H]12` [Example 2], the IC50 in experiment [2] is less than 100 nM.

Turning to `Cc1ccc(Cc2nc3c([nH]2)C(=O)N(C)C2=N[C@@H]4CCC[C@@H]4N23)cc1` [Example 3A], in experiment [2], the IC50 is 100 nM.

`CN1C(=O)c2[nH]c(Cc3ccc(OC(F)(F)F)cc3)nc2N2C1=N[C@@H]1CCC[C@@H]12` [Example 3B]: the half-inhibitory concentration (IC50) in experiment [2] is 600 nM.

With `CN1C(=O)c2[nH]c(Cc3ccc(N4CCOCC4)cc3)nc2N2C1=N[C@@H]1CCC[C@@H]12` [Example 3C], the IC50 in experiment [2] stood at 200 nM.

On to `COc1cccc(Cc2nc3c([nH]2)C(=O)N(C)C2=N[C@@H]4CCC[C@@H]4N23)c1` [Example 3E], for which the half-inhibitory concentration (IC50) in experiment [2] worked out at 900 nM.

As for `CN1C(=O)c2[nH]c(Cc3cccc(C(F)(F)F)c3)nc2N2C1=N[C@@H]1CCC[C@@H]12` [Example 3F], in experiment [2], the half-maximal inhibitory concentration (IC50) stood at 800 nM.

On to `CN1C(=O)c2[nH]c(Cc3ccc4c(c3)OCO4)nc2N2C1=N[C@@H]1CCC[C@@H]12` [Example 3G], for which, in experiment [2], the half-maximal inhibitory concentration (IC50) amounted to 300 nM.

As for `CN1C(=O)c2[nH]c(Cc3ccc(-c4ccccc4)cc3)nc2N2C1=N[C@@H]1CCC[C@@H]12` [Example 3H], the concentration for half-maximal inhibition (IC50) in experiment [2] was less than 100 nM.

Turning to `CN1C(=O)c2[nH]c(Cc3ccc(O)cc3)nc2N2C1=N[C@@H]1CCC[C@@H]12` [Example 3], the IC50 in experiment [2] was less than 100 nM.

`CN1C(=O)c2[nH]c(Cc3ccc4ccccc4c3)nc2N2C1=N[C@@H]1CCC[C@@H]12` [Example 6]: the concentration for half-maximal inhibition (IC50) in experiment [2] worked out at 480 nM.

As for `CN1C(=O)c2[nH]c(Cc3ccc(Cl)cc3)nc2N2C1=N[C@@H]1CCC[C@@H]12` [Example 7], in experiment [2], the IC50 was 650 nM.

Turning to `CN1C(=O)c2[nH]c(Cc3ccccc3)nc2N2CC3(CCCC3)N=C12` [Example 8], in experiment [2], the half-maximal inhibitory concentration (IC50) amounted to 100 nM.

As for `CN1C(=O)c2[nH]c(Cc3ccccc3)nc2N2CC(C)(C)N=C12` [Example 9], the concentration for half-maximal inhibition (IC50) in experiment [2] is 300 nM.

With `CC(C)[C@@H]1CN2C(=N1)N(C)C(=O)c1[nH]c(Cc3ccccc3)nc12` [Example 10], in experiment [2], the IC50 came out at 100 nM.

On to `CN1C(=O)c2[nH]c(Cc3ccc4c(c3)OCO4)nc2N2C1=NC13CCCC1CCC23` (centres unmarked) [Example 11], for which the half-inhibitory concentration (IC50) in experiment [2] was found to be 200 nM.

In the case of `CN1C(=O)c2[nH]c(Cc3ccc(C(F)(F)F)cc3)nc2N2C1=N[C@@H]1COC[C@@H]12` [Example 12], the IC50 in experiment [2] worked out at 3000 nM.
